Experimental data taken from patent publication US20040147557A1, “Aryl piperidine derivatives as inducers of ldl-receptor expression” (priority 2003, published 2004).
Read-outs that look alike come from different tables or passages of the source. Values belong to the molecule of their own block, whether it stands above or below them.

Key:
[1] = tested on: LDL-r promoter; test: LDL-r promoter luciferase reporter gene assay in stably transfected HepG2 cells; format: cell-based, human; details: HepG2 cells with LDL-r promoter-luciferase construct, 24 hours incubation, RPMI medium with 2% lipoprotein-deficient serum, induction of luciferase activity, read-out: In vitro (IC50)
Description: The ability of the compounds of the invention to induce LDL-r expression by human hepatocytes in vitro is determined using a human hepatocarcinoma cell line, Hep G2, as a model system. A reporter gene assay using the LDL-r promoter in front of the reporter gene Luciferase is used as a primary screen.
HepG2 cells, stably transfected with a construct comprising the LDL-r promoter and the luciferase reporter gene, were seeded at 50.000 cells/well in 96 well plates. After 1 day, cells were incubated with compounds for 24 hours in RPMI medium containing 2% of lipoprotein-deficient serum. Compounds were tested from 10^−6M to 10^−9M. Cell lysates were prepared and the luciferase activity was measured by the luciferase assay system (Promega). Induction of luciferase activity was calculated taking untreated cells as control and ED50 of each compounds was determinated compared to the ED50 of an internal standart.

[2] = tested on: fat-fed hamsters; test: Oral administration to fat-fed hamsters, reduction of VLD/LDL cholesterol and TG plasma levels; format: in vivo, hamster; details: hamsters fed 0.2% cholesterol and 10% coconut oil diet, once a day for 3 days, reduction in VLD/LDL cholesterol and TG plasmatic levels
Description: The in vivo profile of the compounds is evaluated by oral administration of the compounds of the invention to fat-fed hamsters. Measurements of VLD/LDL cholesterol and triglycerides upon treatment allow the activity to be determined.
Compounds were prepared for oral administration by milling with 0.5% hydroxypropylmethylcellulose and 5% Tween 80. Hamsters were fed for 2 weeks with a diet containing 0.2% of cholesterol and 10% of coconut oil. Then compounds were administrated once a day for 3 days, from 20 to 0.2 mg/kg. Plasma lipid levels including total cholesterol, VLD/LDL cholesterol, VLD/LDL triglycerides and HDL-cholesterol were determinated after ultracentrifugation (density 1.063 g/ml to separate VLD/LDL fraction and HDL fraction) using the Biomerieux enzymatic kit. Reductions in VLD/LDL cholesterol and TG plasmatic levels were calculated taking solvant treated animals as control and ED50 of each compound was determined.

Compound: COc1c(C2CCN(CCCCNC(=O)c3ccc(-c4ccc(C#N)cc4)cc3)CC2)ccc2c1CCCC2 [Example 11, 4′-Cyano-biphenyl-4-carboxylic Acid {4-[4-(1-methoxy-5,6,7,8-tetrahydro-naphtalen-2-yl)-piperidin-1-yl]-butyl}-amide]
- IC50 [1]: 10 nM
- In vivo (ED50) [2]: 1 mg/kg

Compound: CCc1ccc(C2CCN(CCCCNC(=O)c3ccc(-c4ccc(C(F)(F)F)cc4)cc3)CC2)c(OCC2CC2)c1 [Example 2, 4′-Trifluoromethyl-biphenyl-4-carboxylic Acid [4-[4-(2-cyclopropylmethoxy-4-ethyl-phenyl)-piperidin-1-yl]-butyl]-amide]
- melting point: 247 to 249 °C

Compound: COc1c(C2CCN(CCCCNC(=O)c3ccc(-c4ccc(Cl)cc4)cc3)CC2)ccc2ccccc12 [Example 3, 4′-Chloro-biphenyl-4-carboxylic Acid {4-[4-(1-methoxy-naphtalen-2-yl)-piperidin-1-yl]-butyl}-amide]
- IC50 [1]: 10 nM
- In vivo (ED50) [2]: 2 mg/kg

Compound: CCOc1cc(CC)ccc1C1CCN(CCCCNC(=O)c2ccc(-c3ccc(C#N)cc3)cc2)CC1 [Example 5, 4′-Cyano-biphenyl-4-carboxylic Acid {4-[4-(2-ethoxy-4-ethyl-phenyl)-piperidin-1-yl]-butyl}-amide]
- IC50 ([1]; Homo sapiens): 10 nM
- melting point: 165 °C
- ED50 ([2]; Mesocricetus auratus, 72 h, read-out: In vivo (ED50)): 2 mg/kg

The next lines start with the values.

- melting point: 179 to 180 °C
Compound: CCOc1cc(CC)ccc1C1CCN(CCCCNC(=O)c2ccc(-c3ccc(S(C)(=O)=O)cc3)cc2)CC1 [Example 12, 4′-Methanesulfonyl-biphenyl-4-carboxylic Acid {4-[4-(2-ethoxy-4-ethyl-phenyl)-piperidin-1-yl]-butyl}-amide]

- melting point: 252 °C
Compound: CCc1ccc(C2CCN(CCCCNC(=O)c3ccc(-c4ccc(C#N)cc4)cc3)CC2)c(O)c1 [Example 14, 4′-Cyano-biphenyl-4-carboxylic Acid {4-[4-(2-hydroxy-4-ethyl-phenyl)-piperidin-1-yl]-butyl}-amide]

- melting point: 184 °C
Compound: Cc1ccc(C2CCN(CCCCNC(=O)c3ccc(-c4ccc(C#N)cc4)cc3)CC2)c(O)c1 [Example 18, 4′-Cyano-biphenyl-4-carboxylic Acid {4-[4-(2-hydroxy-4-methyl-phenyl)-piperidin-1-yl]-butyl}-amide]
